Laboratory results from patent US20230322854A1, “HUNTINGTIN-RELATED PEPTIDE AGENTS AND USES THEREOF” (UNIVERSITY OF SOUTHERN CALIFORNIA, priority 2020, published 2023).
Entries after “also recorded” stand apart in the source; their conditions may differ. No end group written: not given here. spin label = not defined here

Columns and labels:
[1] = system: unbundled Huntingtin fibrils (exon 1); experiment: Radioactive binding assay, immobilized unbundled Huntingtin fibrils; conditions: for effect on HD8 binding affinity of constant region / N-terminal mutation: versus HD8 with GSGTSGSS, HD8 MA versus HD8 MM; for effect on binding of mutating the HD8 residue to Alanine: Alanine scan of HD8; for effect on binding of mutating the HD1 residue to Alanine: Alanine scan of HD1; for binding to Htt-fibrils: radiolabeled mRNA-peptide fusions, fibrils immobilized on beads; for effect on HD1 binding of constant region / N-terminal mutation: HD 1A versus HD1 with GSGTSGSS, HD1 MA versus HD1 MM
Excerpt: Messenger RNA (mRNA) display (described in (Roberts, et al. (1997) Proc Natl Acad Sci USA 94: 12297-302, Takahashi, et al. (2003) Trends Biochem Sci 28: 159-65); FIG. 2) was used to engineer peptide agents that bind to unbundled fibrils of Huntingtin exon 1. To do this, unbundled Huntingtin fibrils were generated by mixing biotinylated Huntingtin protein (exon 1; FIG. 1) with non-biotinylated exon 1 Huntingtin protein at a ratio of 1:20 (˜5% biotinylated Huntingtin). These fibrils were then immobilized on Neutravidin agarose (Thermo Fisher) or Streptavidin ultralink beads (Thermo Fisher) via the attached biotin. A MX9 (where X is any of the 20 natural amino acids) mRNA display library was generated using published procedures (Takahashi, et al. (2009) Methods Mol Biol 535: 293-314) and incubated with immobilized fibrils. Non-binding sequences were washed away and the remaining fibril binding peptides were amplified via RT-PCR. This process was repeated seven times.
(§1) The binding of the peptide library was determined using a radioactive binding assay. In this assay, peptides were radiolabeled by translating the mRNA coding for these peptides in the presence of ^35S-methionine using rabbit reticulocyte lysate (Jackson, et al. (1983) Methods Enzymol 96: 50-74). These peptides were translated in an mRNA display format and were thus linked to their encoding mRNA, as described above. After purification by dT chromatography, the radiolabeled peptides were incubated with Huntingtin fibrils immobilized on Neutravidin Agarose or Streptavidin Ultralink beads. The beads were then filtered through a Spin X column (Corning) to separate the supernatant and beads, then washed to remove unbound sequences. The supernatant, washes, and beads were all counted in a scintillation counter to determine the counts in each sample. The percent bound was determined by dividing the counts on the beads with the total counts (beads+washes+supernatant).

[2] = system: Httex1 aggregates; experiment: Labeling of Httex1 aggregates in retinal sections of Huntington mouse models; conditions: R6/1 (34 weeks) and zQ175KI (48 weeks) mice, 2 micromolar
Excerpt: FIG. 28 presents fluorescence microscopy pictures showing that HD8-Alexa488 labels aggregated Httex1 in retina sections from two different mouse model of Huntington disease. Left panels show nuclear stain that labels all cells. Right panels show signal from HD8-Alexa488. Top panels show a retinal section from a R6/1 mouse, and bottom panels show a retinal section from a zQ175KI mouse.
Left panels show nuclear stain that labels all cells (A1 and B1), and right panels show signal from HD8-SP10-HD1-fluorescein (A2 and B2). Top panels are higher magnification that show the ganglion cell layer of the retina, and the bottom panels are lower magnification micrographs that show all retinal layers. Labeling of all retinal layers is seen when the HD peptides are dimerized. The phase contrast panel to the left of the bottom panels show the corresponding retinal layers: ONL: outer nuclear layer that contain rod and cone photoreceptor cells, INL: inner nuclear layer that contains cell bodies from horizontal cells, bipolar cells, amacrine cells and Müller cells, GCL: ganglion cell layer.
To see whether HD peptides bind Httex1 aggregates formed in vivo, we used tissues from two different Huntington mouse models, R6/1 (34 weeks old) and zQ175KI (48 weeks). FIG. 28 show retinal sections from these mice incubated with 2 micromolar of HD8 conjugated with Alexa488 at its carboxyl terminus.
HD8-HD1-fluorescein (0.1 micromolar) was also used on retinal sections from 34-week-old R6/1 mice (FIG. 29). […] In addition, weaker signal from intranuclear aggregates was also observed. Further, the signal can now be detected in all layers of the retina where the nuclei reside.

[3] = Radioactive binding assay, beads without target (no target control); conditions: radiolabeled peptide
Experimental: as §1

[4] = target: unbundled fibrils of Huntingtin exon 1 (about 5% biotinylated), immobilized on beads (UniProt P42858); experiment: EPR, spin-labeled peptide titrated onto 15 µM fibrils
[5] = target: unbundled fibrils of Huntingtin exon 1 (about 5% biotinylated), immobilized on beads (UniProt P42858); experiment: alanine scan of the constant region, radioactive binding assay

MWQMMNGMSQG [HD 8G]
effect on HD8 binding affinity of constant region / N-terminal mutation [1]: loss could be recovered

MWQMMNAMSQ [G7]
effect on binding of mutating the HD8 residue to Alanine [1]: modest losses

MWQMMNGMSQGS [HD 8GS]
effect on HD8 binding affinity of constant region / N-terminal mutation [1]: loss could be recovered

HD1-SP10-HD8-SP10-HD1: trimeric peptide agent of HD1, HD8, HD1 with spacers (MDWWPMWPSLGSGTSGSSGSMWQMMNGMSQGSGTSGSSGSMDWWPMWPSL)
binding under lower fibril conditions ([1]; 0.7 μg protein (about 50 pmol as monomer)): better performing

HD8-Alexa488: HD8 conjugated with Alexa488 at its carboxyl terminus (MWQMMNGMSQ-Alexa488)
labeling of retinal sections [2]: Specific staining was observed in the ganglion cell layer of the retina in both mouse models
labeling of retinal sections ([2]; listed as HD8 conjugated with Alexa488): observed mostly in the ganglion cell layer

MWAMMNGMSQ [Q3]
effect on binding of mutating the HD8 residue to Alanine [1]: large losses of binding

MDWWPMWPSA [L10]
effect on binding of mutating the HD1 residue to Alanine [1]: decrease binding

MQMWTMWEPW (MQMWTMWEPWGSGTSGSS) [HD 6]
binding to Htt-fibrils [1]: good binding to Htt-fibrils
binding to beads without target [3]: little to no binding to beads without target

MWMIQMPGYQ (MWMIQMPGYQGSGTSGSS) [HD2]
binding to Htt-fibrils [1]: demonstrated binding to Htt-fibrils
binding to beads without target [3]: little to no binding to beads without target

MFFVLSWTPL [HD5]
binding to beads without target [3]: high non-specific binding to beads without target

MDAWPMWPSL [W3]
effect on binding of mutating the HD1 residue to Alanine [1]: decrease binding

MDWWPMWASL [P8]
effect on binding of mutating the HD1 residue to Alanine [1]: decrease binding

MDWWAMWPSL [P5]
effect on binding of mutating the HD1 residue to Alanine [1]: decrease binding

HD1 MA: HD1 with additional Met at the N-terminus, Met1 changed to Ala (MADWWPMWPSLGSGTSGSS)
effect on HD1 binding of constant region / N-terminal mutation [1]: significantly decreases binding

MDLWPMWESW (MDLWPMWESWGSGTSGSS) [HD7]
binding to Htt-fibrils [1]: good binding to Htt-fibrils
binding to beads without target [3]: little to no binding to beads without target

MDWWPLWPSL (MDWWPLWPSLGSGTSGSS) [HD1 M6L]
effect on binding of Met substitution in HD1 ([1]; HD1 Met mutants versus HD1): no effect on binding

MDWWPAWPSL [M6]
effect on binding of mutating the HD1 residue to Alanine [1]: decrease binding; also recorded: reduced but did not abolish

HD8SP10-HD1: dimeric peptide agent of HD8 and HD1 joined by a 10 amino acid spacer (MWQMMNGMSQGSGTSGSSGSMDWWPMWPSLGSGTSGSS)
binding in the presence of urea ([1]; 1 M, 2 M or 3 M urea versus buffer only (TBST)): decreased binding that is approximately proportional to the amount of urea added

MFMMMWMSLT (MFMMMWMSLTGSGTSGSS) [HD4]
binding to Htt-fibrils [1]: demonstrated binding to Htt-fibrils
binding to beads without target [3]: little to no binding to beads without target

MAWQMMNGMSQ GSGTSGSS (MAWQMMNGMSQGSGTSGSS) [HD8 MA]
effect on HD8 binding affinity of constant region / N-terminal mutation [1]: decrease in binding

MWQMMNGASQ [M8]
effect on binding of mutating the HD8 residue to Alanine [1]: modest losses

MAQMMNGMSQ [W2]
effect on binding of mutating the HD8 residue to Alanine [1]: modest losses

HD 1A: HD1 with substitution of the GSGTSGSS constant region with Ala (MDWWPMWPSLA)
effect on HD1 binding of constant region / N-terminal mutation [1]: little effect on binding affinity

MWQMANGMSQ [M5]
effect on binding of mutating the HD8 residue to Alanine [1]: modest losses

MWQMMNGMSQA [HD 8A]
effect on HD8 binding affinity of constant region / N-terminal mutation [1]: modest loss in binding affinity

MRWSMSYSWA (MRWSMSYSWAGSGTSGSS) [HD3]
binding to Htt-fibrils [1]: demonstrated binding to Htt-fibrils
binding to beads without target [3]: little to no binding to beads without target

B1: spin-labeled synthetic HD1 (peptide)
peptide: MDWWPMWPSLC(spin label)
modifications: reading uncertain
stoichiometry of the complex (ratio at saturation) (ratio (printed 1:3)) [4]: 0.33

B2: spin-labeled synthetic HD8 (peptide)
peptide: MWQMMNGMSQC(spin label)
modifications: reading uncertain
stoichiometry of the complex (ratio) (ratio (printed 1:1)) [4]: 1

B3: HD1 G11A (peptide)
peptide: MDWWPMWPSLASGTSGSS
modifications: also: 35S-methionine
percent decrease in HD1 binding [5]: 20%

B4: HD1 S12A (peptide)
peptide: MDWWPMWPSLGAGTSGSS
modifications: also: 35S-methionine
percent decrease in HD1 binding [5]: 20%

B5: HD1 G13A (peptide)
peptide: MDWWPMWPSLGSATSGSS
modifications: also: 35S-methionine
percent decrease in HD1 binding [5]: 20%

B6: HD8-SP10-HD1-SP10-HD8-SP10-HD1: tetrameric HD8/HD1 molecule with spacers (peptide)
peptide: MWQMMNGMSQGSGTSGSSGSMDWWPMWPSLGSGTSGSSGSMWQMMNGMSQGSGTSGSSGSMDWWPMWPSL
binding to Htt-fibrils in the presence of serum ([1]; serum diluted 1:2, 1:5 or 1:10 with buffer (TBST)): serum can partially inhibit binding
